For series [1] the following is noted: background statement on ursolic acid; cited from earlier work.
Series [2] is described as follows: Pharmacokinetic animal test on Sprague Dawley (SD) rat, ursolic acid concentration in blood plasma. Format: in vivo. To be noted: male, intravenous administration, dose 0.5 (mg/kg per Table 1), SD rats. On the procedure:
Pharmacokinetic Animal Test on Sprague Dawley (SD) Rat, Using Ursolic Acid and Ursolic Acid Derivatives of Examples
• Ursolic acid derivative of Examples (5-methyl-2-oxo-1,3-dioxole-4-yl)methyl 3β-hydroxyl-urs-12-en-28-oate was used.
The ursolic acid was single-intravenously administered on SD rats and the ursolic acid derivative of Example 2 was orally administered, then blood collection was performed each time, and concentration of the test substance in blood was analyzed. Accordingly, bioavailability of the ursolic acid and ursolic acid derivatives of Examples were measured and compared with each other.
i) Control substance (Intravenous Administration): Ursolic Acid (UA) (HPLC purity of 99.0% or more/area percentage)
ii) Test substance (Oral Administration) Ursolic acid derivative of Example 2 (HPLC purity of 99.4% or more/area percentage)
The control substance for intravenous administration was diluted with 0.9% saline which was sterilized and sealed to be prepared in 0.5 mg/mL. […]
(3) Calculation of Injection Amount: The injection amount was calculated to be 1.0 or 2.0 mL/kg, on the basis of the recently measured body weight before the administration. […]
Concentration of ursolic acid in the blood plasma of the rats was measured. […]

For series [3] the following is noted: rats, from Paper 1; cited from earlier work.

Molecules are shown by their SMILES. Like-named read-outs stand apart in the source and are kept apart here.

We go through 2 compounds from patent US9120839B2, “Ursolic acid derivative and method for preparing same” (Nexoligo Co., Ltd., priority 2012, dated 2015).

Turning to `C[C@H]1[C@H](C)CC[C@]2(C(=O)O)CC[C@]3(C)C(=CC[C@@H]4[C@@]5(C)CC[C@H](O)C(C)(C)[C@@H]5CC[C@]43C)[C@H]12` [Ursolic Acid, 3β-hydroxy-urs-12-en-28-oic acid], in series [1], the oral absorptivity entry is reported as “less than 1%”. In series [2], the area under the curve AUC(0-t) – broadly, exposure summed from dosing to a finite time, without extrapolation to infinity – amounted to 114 ng·h/mL and the highest level (Cmax) was 378 ng/mL.
As to `CC1(C)CC[C@]2(C(=O)O)CC[C@]3(C)C(=CC[C@@H]4[C@@]5(C)CC[C@H](O)C(C)(C)[C@@H]5CC[C@]43C)[C@@H]2C1` [oleanolic acid], in series [3], the oral absorptivity result is “about 0.7%”.
